One data set concerns HepG2 cells. In words: Cytotoxicity by LDH release in HepG2 cells. In kind it is cell-based. The note with it: 0 to 160 μM. On the procedure:
E. coli strain CFT073 and its derivative CFT073ΔcpxA::cat were described previously and maintained on Luria broth (LB) plates at 37°C ([30]). The E. coli PcpxP′-lacZ reporter strain, PAD282, was the gift of Thomas Silhavy (Princeton University, Princeton, NJ, USA) and was maintained on TB plates at 37°C ([31]). HepG2 hepatocellular carcinoma cells were the gift of Andy Yu (Indiana University, Indianapolis, IN) and were grown in RPMI […] medium (Gibco) containing 10% fetal calf serum (HyClone) and 1 mM sodium pyruvate (Sigma) at 37°C with 5% CO2 as described ([31]).
The cytotoxicity of compound 6 for HepG2 cells was determined by LDH release after incubation with the compound in concentrations ranging from 0 to 160 μM for 5 h and 24 h exactly as described ([31]). The IC50 was determined from quadruplicate experiments by the GraphPad Prism 6 software using a nonlinear fit model.

Data set [1] can be described thus: Pharmacokinetics of compound 6 in mice: plasma, urine, bladder, kidneys by HPLC-MS/MS. The data set is classed as in vivo, female CBA/J mice. The note with it: for concentration at 52 h / concentration at 48 h: subcutaneous; for concentration at 52 h: 100 mg/kg s.c. once a day at 0, 24, 48 h; for concentration at 48 h: 100 mg/kg s.c. once a day, sample just prior to the 48-h injection. Here is the method: We developed a high-performance liquid chromatography-tandem mass spectrometry (HPLC-MS/MS) assay to measure compound 6 with a lower limit of quantification of 1 ng/mL. Single-dose PK parameters of compound 6 were determined in female CBA/J mice (n = 15) given 100 mg/kg s.c. dissolved in the vehicle. Blood was obtained from groups of 3 mice 1, 2, 4, 8, and 24 h postinjection.
As effective antimicrobials must achieve concentrations that exceed their MICs, we next determined whether compound 6 achieved plasma, kidney, bladder, and urinary concentrations in excess of its peak activating concentration of 10 μM in the CpxR reporter assay. […] Blood and urine samples were obtained just prior to the 48-h injection and at 52 h, 4 h after the final dose; we were only able to recover 2 urine samples at those time points. At 52 h, the animals were sacrificed, and tissue levels of compound 6 were determined in the bladder and kidneys. The mean peak and trough levels of compound 6 were 18.6 ± 3.2 μM and 9.6 ± 1.9 μM in the plasma and 344 μM and 151.7 μM in the urine, respectively. The mean tissue levels of compound 6 in the bladder and kidneys were 203 ± 28 μM and 48 ± 4 μM, respectively. Thus, compound 6 achieved levels in the urine, bladder, and kidneys that were ∼5- to 34-fold higher than its peak activating concentration.
Compound 6 was quantified by the IU Simon Comprehensive Cancer Center Clinical Pharmacology Analytical Core from mouse plasma and mouse urine using temazepam (TMP) as the internal standard and HPLC-MS/MS (5500 QTRAP; AB Sciex, Framingham, MA). In brief, compound 6 and TMP were separated by a gradient mobile phase (acetonitrile, 5 mM ammonium acetate) with a Restek Ultra C8 50 by 4.6 mm 5-micron column. The mass spectrometer utilized an electrospray ionization probe run in positive mode. The multiple reaction monitoring (MRM) Q1/Q3 (m/z) transitions for compound 6 and TMP were 187.9/146.0 and 301.1/254.9, respectively. Plasma or urine samples (20 μL) were transferred to glass culture tubes, TMP (20 μL of 0.1 ng/μL) was added as the internal standard, and the extraction was performed by the addition of 2 mL of methyl tertiary butyl ether. The samples were then vortexed, centrifuged, and the organic layer was transferred to a clean glass culture tube and evaporated to dryness. The samples were then reconstituted with 50 μL of the gradient mobile phase, and a 10-μL aliquot was injected to the HPLC-MS/MS. The standard curves were prepared using naive mouse plasma or naive mouse urine as the matched matrix and was linear from 1 to 1,000 ng/mL.
Compound 6 was quantified from the bladder and kidneys using a slightly modified method from the plasma sample analysis. Briefly, the tissue was weighed and then transferred to a polypropylene tube. Phosphate-buffered saline (PBS) (pH 7.4) was added to the tissue to bring the total volume to 0.5 mL (assumption 1 g = 1 mL). The tissue was homogenized using a TissueRuptor with a single use disposable probe. An aliquot (0.4 mL) was transferred to a clean polypropylene tube and temazepam (20 μL of 0.1 ng/μL) was added as the internal standard. The extraction procedure and HPLC-MS/MS conditions were the same as for the plasma samples. The standard curve was prepared using phosphate-buffered saline and was linear from 0.04 to 40 ng/sample.

Structures are written as SMILES. “And” between values parts separate entries of the source, which are not always exact repeats. Equal values may be shown once. Read-outs that look alike come from different tables or passages of the source.

A word on the IC50: it is the concentration that inhibits the measured activity by half. Lower therefore signals greater potency.

As for `NC1CCCc2c1[nH]c1ccc(F)cc21` (centres unmarked) [compound 6], in the data set with HepG2 cells (5 h incubation), the “IC50, LDH release” value is reported as “could not be calculated”. Also, the IC50 in the data set on HepG2 cells (Homo sapiens, 24 h incubation) is over 33 µM. Moreover, the concentration at 52 h in data set [1] (female, CBA/J, mouse, bladder, at 52 h, read-out: mean tissue level in bladder) was determined as 203 ± 28 µM; in data set [1] (female, CBA/J, mouse, kidneys, at 52 h, read-out: mean tissue level in kidneys), 48 ± 4 µM; in data set [1] (female, CBA/J, mouse, plasma, sample at 52 h, read-out: mean peak level in plasma), 18.6 ± 3.2 µM; in data set [1] (female, CBA/J, mouse, urine, sample at 52 h, 2 samples, read-out: mean peak level in urine), 344 µM. The concentration at 24 h in data set [1] (female, CBA/J, mouse, plasma, sc, single dose 100 mg/kg s.c., read-out: plasma concentration at 24 h, mean ± SD) is 2390 ng/mL and 11.7 µM. In data set [1] (female, CBA/J, mouse, plasma, sc, single dose 100 mg/kg s.c., read-out: time of peak plasma concentration), the Tmax came out at 4 h. The concentration at 48 h in data set [1] (female, CBA/J, mouse, plasma, read-out: mean trough level in plasma) was determined as 9.6 ± 1.9 µM; in data set [1] (female, CBA/J, mouse, urine, 2 samples, read-out: mean trough level in urine), 152 µM. Further, in data set [1] (single dose 100 mg/kg s.c., at 4 h, 100 mg/kg), the “peak plasma concentration, mean ± SD” value is 3,305 ± 696 ng/mL and 16.2 ± 3.4 μM.

The values are drawn from PMC9045377, “CpxA Phosphatase Inhibitor Activates CpxRA and Is a Potential Treatment for Uropathogenic Escherichia coli in a Murine Model of Infection” (Microbiology Spectrum, 2022).
